Structures are written as SMILES. Converted amounts (≈) assume the structure as drawn.

The nature of this data set: Toxicity against Artemia salina by lethality assay. The conditions noted are these: in vivo, read-out: LD50 (the source's name). The class given is organism-based.
Consider `C/C(=C/C(=O)/C=C(\C)CCCc1ccoc1)CCCc1ccoc1`, for which the LC50 worked out at 0.09 µg/mL (≈ 0.276 µM).
The value for `C/C(=C\C(=O)C/C(C)=C/CCc1ccoc1)CCCc1ccoc1` [FUROSPONGIN 2] was 0.12 µg/mL (≈ 0.368 µM); that for `C/C(=C\C(=O)/C=C(\C)CCCc1ccoc1)CCCc1ccoc1` was 1.6 µg/mL (≈ 4.9 µM); that for `CC(=O)O[C@H]1C[C@H]2[C@]3(C)CCCC(C)(C)[C@H]3CC[C@]2(C)[C@H]2CC=C3CO[C@H](O)[C@H]3[C@]12C` was 200 µg/mL (≈ 464 µM).
For the compound `CC(=O)O[C@H]1C[C@@H]2[C@@]3(C)CCCC(C)(C)[C@@H]3CC[C@@]2(C)[C@@H]2CCc3cocc3[C@@]12C`, the LC50 was determined as 180 µg/mL (≈ 436 µM).
For `C/C(=C/C(=O)/C=C(/C)CCCc1ccoc1)CCCc1ccoc1`, the LC50 was determined as 0.45 µg/mL (≈ 1.38 µM).
On to `CC(=O)O[C@@H]1OCC2=CC[C@H]3[C@]4(C)CC[C@H]5C(C)(C)CCC[C@]5(C)[C@H]4C[C@H](OC(C)=O)[C@]3(C)[C@H]21` [DEOXOSCALARIN ACETATE], for which the LC50 came out at 190 µg/mL.

Source of the values: ChEMBL document CHEMBL1147321, “Terpenoids from the North Adriatic Sponge Spongia officinalis” (J Nat Prod, 1989).
